≈ marks a conversion by molar mass, not a printed value. Where “and” joins values, the source holds several entries; their conditions need not be identical. Equal entries are not always repeated. Where two headings read alike, the source gives them in different places.
Experiments:
[1] = test system: E. coli K12 MG1655; experiment: MIC testing by CLSI broth microdilution in M9-based minimal media ATCC 2511, with or without methionine; assay type: cell-based, Escherichia coli; settings: for MIC90: Escherichia coli; for antibacterial activity against E. coli in words: E. coli K12
Description: To explore the SAR around the right hand aryl portion of the TAT series (Table 1), compounds were evaluated for their in vitro antibacterial activity against E. coli in the M9-based minimal media ATCC 2511. […]. An MIC shift between the two medias was used to indicate that antibacterial activity of the compounds remained on target, and this was happily seen with all of the most MIC active compounds generated in this study. Within the first series of compounds in Table 1, modifications to the phenyl ring are generally well tolerated. MICs remain within 2-fold of the initial hit 1 for the fluoro- and cyano- substituted compounds 1–8. […]. Incorporating the electron-donating group -OMe and sterically bulky iodine group in both ortho and para position, 17–20, maintained activity, whereas the introduction of the strong electron-withdrawing -CF3 group, 21 and 22, led to poorer MIC activity. […] The phenyl ring isosteres—thiazoles 25 and 26—both retained good MIC activity. Adding a methyl branch to the thioacetamide linker 28 and 29 led to a striking loss of activity. Replacement of the aryl group with the aliphatic groups cyclohexyl 31, cyclopentyl 32, tert-butyl groups 33 all reduced activity.
MICs were determined following CLSI broth microdilution susceptibility M100 guidelines. Compound solutions were prepared in DMSO and serially diluted 1:2 in 100 μL/well in 96 well round-bottom plates. E. coli K12 MG1655 was acquired from ATCC and strictly maintained in the M9-based media ATCC 2511. ATCC 2511 was also used for all further cultivation and MIC testing. Bacteria were grown from a single colony to a mid-log OD600 and frozen in 0.5 mL aliquots. These aliquots were used to directly inoculate the assay plates by diluting to an OD600 of 0.001 and plating 100 μL per well, allowing for ~10^5 CFU to be added to each well.

[2] = test system: E. coli K12; experiment: Whole cell accumulation in E. coli K12 (LC-MS/MS); set-up: dose or concentration left out as unconfirmed; settings: 10 min, 37 °C; average of three biological replicates
Description: Drug uptake in whole cell E. coli K12, was performed following a modified protocol adapted from previously published studies [17, 25, 26, 27]. […] After incubation, 800 mL of antibiotic-exposed cells were spun (3 min, 13,000× g) through 700 mL of a 9:1 mix of AR20 and high temperature silicon oils (cooled to −80°C). The supernatant of silicone oil and free compound in PBS was carefully removed from pellet. Intracellular concentration of antibiotics within the bacterial cells was then determined.
For lysis, cells were resuspended in 200 mL of water and lysed by three freeze-thaw cycles of 3 min each in liquid nitrogen and in a 60 °C water bath. Lysed cells were pelleted and 150 mL of aqueous extract was transferred to a clean 1.5 mL microcentrifuge tube. Cell debris was resuspended in the remaining 50 mL of water and then extracted with 100 mL of methanol. Cells were again centrifuged, 100 mL of the methanol extract were removed and combined with the water supernatant. The extracts were allowed to rest at room temperature for 1 h before being centrifuged for 10 min at 20,000× g. Finally, extracts were filtered through a 0.22mm spin column to remove any remaining cellular debris.
Samples were analyzed with a Waters Acquity M Class series UPLC system and Xevo G2 QTOF tandem MS/MS with Zspray. Using a Phenomenex Kinetex 2.6 μm XB-C18, 100 Å (300 μm × 150 mm) column with solvent A, 0.1% formic acid in water, and solvent B, 0.1% formic acid in acetonitrile, 250 nL of extract were separated. […] High-resolution spectra were calibrated by co-infusion of 2 ng/mL leucine enkephalin lockspray (Waters). Data were quantified using Waters MassLynx software where the AUC was determined by integrating the daughter peak of the parent ion. Concentrations of the unknown compounds were determined by the linear fit of the standard curve. Concentrations were normalized to the culture density, determined via titers, to 10^10 CFU and are reported as the average of three biological replicates.

[3] = Solubility; assay type: physicochemical; settings: pH 7.4 (Table S1); for solubility: read-out: Solubility Avg. Sol
Description: The in vitro ADME values (solubility, mouse plasma stability, human plasma stability, mouse metabolic stability, and human metabolic stability) were determined as previously reported.

[4] = No Supplement (N.S.), ATCC 2511 media, 16 h, 37 °C
[5] = MG1655, read-out: E. coli K12 MIC90
[6] = No Supplement (N.S.), ATCC 2511 media, 16 h, 37 °C, read-out: E. coli K12 MIC90
[7] = 16 h, read-out: E. coli K12 MIC90

Compound | melting point | MIC90 [1, 5] | MIC90 [1, 6] | further results
3-[(1H-1,2,3-triazol-4-yl)sulfanyl]-N-(2-fluorophenyl)propenamide [Compound 30] |  |  |  | E. coli K12 MIC90 ([1]; +20 μg/mL Methionine): 25 µg/mL; E. coli K12 MIC90 [1, 4]: 6.3 µg/mL
N#Cc1ccc(NC(=O)CSc2c[nH]nn2)cn1 [Compound 15, 2-[(1H-1,2,3-triazol-4-yl)sulfanyl]-N-(6-cyanopyridin-3-yl)acetamide] | 198 to 199 °C | 50 µg/mL (≈ 192 µM) | 6.3 µg/mL (≈ 24.2 µM) | 
O=C(CSc1c[nH]nn1)NC1CCCC1 [Compound 33] | 108 to 109 °C | 25 µg/mL (≈ 110 µM) | 12.5 µg/mL (≈ 55.2 µM) | 
Cn1cc(SCC(=O)Nc2ccccc2)nn1 [Compound 69] |  |  | > 200 µg/mL | antibacterial activity against E. coli in words [1]: inactive
Cn1nncc1SCC(=O)Nc1ccccc1F [Compound 70] |  |  | > 200 µg/mL | antibacterial activity against E. coli in words [1]: inactive
Cc1nnc(SCC(=O)Nc2ccccc2F)s1 [Compound 67] | 111 to 113 °C |  | > 200 µg/mL | antibacterial activity against E. coli in words [1]: inactive
COc1ccc(NC(=O)CSc2c[nH]nn2)cc1 [Compound 18, 2-[(1H-1,2,3-triazol-4-yl)sulfanyl]-N-(4-methoxyphenyl)acetamide] | 130 to 131 °C | 12.5 µg/mL (≈ 47.3 µM) | 3.1 µg/mL (≈ 11.7 µM) | 
N#Cc1ccc(NC(=O)CSc2c[nH]nn2)nc1 [Compound 16, 2-[(1H-1,2,3-triazol-4-yl)sulfanyl]-N-(5-cyanopyridin-2-yl)acetamide] | 118 to 119 °C | 6.3 µg/mL (≈ 24.2 µM) | 3.1 µg/mL (≈ 11.9 µM) | 
CN(C(=O)CSc1c[nH]nn1)c1ccc(F)cc1 [Compound 23] | 95 to 96 °C |  | 25 µg/mL (≈ 93.9 µM) | 
CN(Cc1ccccc1F)C(=O)CSc1cnn[nH]1 [Compound 46] |  |  | 50 µg/mL (≈ 178 µM) | 
O=C(CSc1cnn[nH]1)Nc1ccccc1 [Compound 11] |  | 6.3 µg/mL (≈ 26.9 µM) | 1.6 µg/mL (≈ 6.83 µM) | 
O=C(CSc1c[nH]nn1)Nc1cccc(F)c1 [Compound 7, 2-[(1H-1,2,3-triazol-4-yl)sulfanyl]-N-(3-fluorophenyl)acetamide] |  | 12.5 µg/mL (≈ 49.5 µM) | 1.6 µg/mL (≈ 6.34 µM) | E. coli K12 MIC90 [1, 4]: ≤ 3.1 µg/mL
O=C(CSc1c[nH]nn1)Nc1ncccc1F [Compound 13, 2-[(1H-1,2,3-triazol-4-yl)sulfanyl]-N-(3-fluoropyridin-2-yl)acetamide] | 99 to 100 °C | 25 µg/mL (≈ 98.7 µM) | 6.3 µg/mL (≈ 24.9 µM) | 
O=C(NCCSc1cnn[nH]1)c1ccc(O)c(O)c1 [Compound 59] |  |  | 50 µg/mL (≈ 178 µM) | Whole Cell Accumulation in E. coli [2]: 1.0 ± 0.1 μM/10^10 CFU; antibacterial activity against E. coli in words [1]: moderate activity
O=C(NCCSc1cnn[nH]1)c1ccccc1F [Compound 58] |  |  | 12.5 µg/mL (≈ 46.9 µM) | Whole Cell Accumulation in E. coli [2]: 7.0 ± 1 μM/10^10 CFU; antibacterial activity against E. coli in words [1]: moderate activity
NC(=O)N1c2ccccc2C=Cc2ccccc21 [Carbamazepine, reference compound] |  |  |  | %Soluble [3]: 85.1%; solubility ([3]; pH 7.4, aqueous buffer): 20.1 µg/mL and 85.1 µM
O=C(CSc1cnn[nH]1)NCc1ccc(OC(F)(F)F)cc1 [Compound 45] | 131 to 133 °C |  | 100 µg/mL (≈ 301 µM) | 
O=C(CSc1cnn[nH]1)NCc1ccc(C(F)(F)F)cc1 [Compound 44] | 133 to 135 °C |  | 50 µg/mL (≈ 158 µM) | 
O=C(CSc1nncs1)Nc1ccccc1 [Compound 63] | 109 to 110 °C |  | > 200 µg/mL | antibacterial activity against E. coli in words [1]: inactive
Cn1cc(SCC(=O)Nc2ccccc2F)nn1 [Compound 71] |  |  | > 200 µg/mL | antibacterial activity against E. coli in words [1]: inactive
O=C(CSc1c[nH]nn1)NC1CCCCC1 [Compound 31] | 118 to 119 °C |  | 25 µg/mL (≈ 104 µM) | 
COc1ccccc1NC(=O)CSc1c[nH]nn1 [Compound 17, 2-[(1H-1,2,3-triazol-4-yl)sulfanyl]-N-(2-methoxyphenyl)acetamide] | 99 to 100 °C |  | 6.3 µg/mL (≈ 23.8 µM) | 
COc1cc(Cc2cnc(N)nc2N)cc(OC)c1OC [Trimethoprim, reference compound] |  |  |  | MIC90 [1, 7]: 0.98 µg/mL (≈ 3.38 µM)
O=C(CSc1c[nH]nn1)Nc1ccc(C(F)(F)F)cc1 [Compound 22] | 163 to 165 °C |  | 25 µg/mL (≈ 82.7 µM) | 

Compound | melting point | MIC90 [1, 5] | MIC90 [1, 6] | further results
O=C(CSc1c[nH]nn1)Nc1ccccc1I [Compound 19, 2-[(1H-1,2,3-triazol-4-yl)sulfanyl]-N-(2-iodophenyl)acetamide] | 122 to 124 °C |  | 3.1 µg/mL (≈ 8.61 µM) | 
O=C(CSc1cnn[nH]1)NCc1cc(F)cc(C(F)(F)F)c1 [Compound 42] | 82 to 84 °C |  | 50 µg/mL (≈ 150 µM) | 
O=C(CSc1cnn[nH]1)NCc1ccccn1 [Compound 40] |  | > 50 µg/mL | 12.5 µg/mL (≈ 50.1 µM) | 
O=C(CSc1c[nH]nn1)Nc1ccccc1C(F)(F)F [Compound 21] | 83 to 85 °C |  | 25 µg/mL (≈ 82.7 µM) | 
N#Cc1cccc(NC(=O)CSc2c[nH]nn2)c1 [Compound 8, 2-[(1H-1,2,3-triazol-4-yl)sulfanyl]-N-(3-cyanophenyl)acetamide] | 158 to 159 °C | 12.5 µg/mL (≈ 48.2 µM) | 3.1 µg/mL (≈ 12 µM) | 
Cc1nnc(SCC(=O)Nc2ccccc2)s1 [Compound 64] | 153 to 154 °C |  | > 200 µg/mL | antibacterial activity against E. coli in words [1]: inactive
Cn1nnnc1SCC(=O)Nc1ccccc1F [Compound 65] | 137 to 139 °C |  | > 200 µg/mL | antibacterial activity against E. coli in words [1]: inactive
CCN(C(=O)CSc1c[nH]nn1)c1ccccc1F [Compound 24] | 82 to 83 °C | 25 µg/mL (≈ 89.2 µM) | 12.5 µg/mL (≈ 44.6 µM) | 
N#Cc1cccnc1NC(=O)CSc1c[nH]nn1 [Compound 12] | 113 to 114 °C |  | 25 µg/mL (≈ 96 µM) | 
CCCSc1ccc2nc(NC(=O)OC)[nH]c2c1 [Albendazole, reference compound] |  |  |  | solubility ([3]; aqueous buffer): 5.33 µg/mL and 20.1 µM; %Soluble [3]: 20.1%
O=C(CSc1cnn[nH]1)NCc1ccc(F)cc1 [Compound 39, 2-[(1H-1,2,3-triazol-5-yl)sulfanyl]-N-(4-fluorobenzyl)acetamide] | 122 to 124 °C | 50 µg/mL (≈ 188 µM) | 6.3 µg/mL (≈ 23.7 µM) | 
Cn1nnnc1SCC(=O)Nc1ccccc1 [Compound 62] |  |  | > 200 µg/mL | antibacterial activity against E. coli in words [1]: inactive
O=C(CSc1nncs1)Nc1ccccc1F [Compound 66] | 123 to 125 °C |  | > 200 µg/mL | antibacterial activity against E. coli in words [1]: inactive
O=C(CSc1cnn[nH]1)NCc1ccccc1F [Compound 38, 2-[(1H-1,2,3-triazol-5-yl)sulfanyl]-N-(2-fluorobenzyl)acetamide] |  |  | 3.1 µg/mL (≈ 11.6 µM) | 
Cc1cc(NS(=O)(=O)c2ccc(N)cc2)no1 [Sulfamethoxazole, reference compound] |  |  |  | MIC90 [1, 7]: 0.98 µg/mL (≈ 3.87 µM)
O=C(N[C@H](CO)[C@H](O)c1ccc([N+](=O)[O-])cc1)C(Cl)Cl [Chloramphenicol, reference compound] |  |  | 1.6 µg/mL (≈ 4.95 µM) | 
CCOC(=O)c1cnc(NC(=O)CSc2c[nH]nn2)s1 [Compound 26, Ethyl 2-{2-[(1H-1,2,3-triazol-4-yl)sulfanyl]acetamido}thiazole-5-carboxylate] | 172 to 174 °C | 12.5 µg/mL (≈ 39.9 µM) | 3.1 µg/mL (≈ 9.89 µM) | 
O=C(CSc1c[nH]nn1)Nc1ccc(F)cn1 [Compound 14, 2-[(1H-1,2,3-triazol-4-yl)sulfanyl]-N-(5-fluoropyridin-2-yl)acetamide] | 151 to 153 °C | 12.5 µg/mL (≈ 49.4 µM) | 3.1 µg/mL (≈ 12.2 µM) | 
O=C(CSc1cnn[nH]1)NCc1cccc(F)c1 [Compound 41] | 85 to 86 °C |  | 6.3 µg/mL (≈ 23.7 µM) | 
Cn1nncc1SCC(=O)Nc1ccccc1 [Compound 68] |  |  | > 200 µg/mL | antibacterial activity against E. coli in words [1]: inactive
O=C(CSc1c[nH]nn1)Nc1ccncc1 [Compound 10] | 187 to 188 °C | 50 µg/mL (≈ 213 µM) | 12.5 µg/mL (≈ 53.1 µM) | fold change (loss) in MIC activity relative to initial hit 1 ([1]; E. coli K12, no supplement): 8 fold
O=C(CSc1c[nH]nn1)Nc1ncccn1 [Compound 27] | 136 to 138 °C |  | 25 µg/mL (≈ 106 µM) | 
O=C(CSc1c[nH]nn1)Nc1ccc(I)cc1 [Compound 20, 2-[(1H-1,2,3-triazol-4-yl)sulfanyl]-N-(4-iodophenyl)acetamide] | 166 to 168 °C | 25 µg/mL (≈ 69.4 µM) | 6.3 µg/mL (≈ 17.5 µM) | 
